Columns and labels:
rabbit liver esterase = experiment: Incubation with rabbit liver esterase, HPLC analysis; assay type: in vitro ADME; conditions: 30 min
[1] = system: MDA-MB-231 breast cancer cells; experiment: In vitro cytotoxicity, Alamar blue metabolic assay, scaffolds in transwell inserts; assay type: cell-based
Procedure: MDA-MB-231 breast cancer cells and primary human dermal fibroblasts (HDFs) were obtained from the ATCC (USA). Both cell types were cultured in DMEM supplemented with 10% fetal bovine serum (FBS) and 25 μg/mL Gentamicin. For toxicity studies HDFs were seeded at 5,000 cells per well/1 mL medium in a 12-well plate and allowed to reach confluency prior to application of experimental conditions. MDA-MB-231 cell were seeded in 12-well plates at a seeding density of 5,000 per well/1 mL medium and incubated at 37° C. in a humidified atmosphere of 95% air and 5% CO2 for 24 h prior to application of experimental conditions. […]
Cells subjected to these experimental conditions were allowed to culture for 6 days at which point cell viability was measured using Alamar blue metabolic assay. […] The supernatant from each well was transferred to a 96-well plate and was measured using a fluorescence plate reader (Tecan, Männedorf, Switzerland) by applying wavelength excitation of 560 nm and read it at emission of 590 nm, which is directly correlated to the viable cell number, and inversely correlated with the toxicity of the cross-linked polymer tissue scaffolds. The mean absorbance for each treatment was determined and then expressed as a percent of viability relative to the control. […]

Row | conversion to the free acid (rabbit liver esterase) | Compound | IC50 ([1]; Homo sapiens, 144 h, MDA-MB-231, 6 days, free curcumin dissolved in DMSO, diluted in media, max 1% DMSO) [µM] | curcumin uptake by cells or degradation after addition to media ([1]; free curcumin added to cell culture media)
1 | approximately 70% | CCOC(=O)[C@H](Cc1ccc(O)cc1)NC(=O)CCc1ccc(O)cc1 [DTE, desaminotyrosyl-tyrosine ethyl ester] |  | 
2 |  | COc1cc(/C=C/C(=O)CC(=O)/C=C/c2ccc(O)c(OC)c2)ccc1O [free curcumin, curcumin] | 14 | less than 48 hours

From patent US10105467B2, “Biocompatible polymer compositions for tissue void filling” (Rutgers, The State University of New Jersey, priority 2013, dated 2018)
